# Laboratory results published in US10308656B2, “Small molecule inhibitors of Ku70/80 and uses thereof” (ARIZONA BOARD OF REGENTS ON BEHALF OF THE UNIVERSITY OF …, priority 2015, dated 2019).
# “Also recorded” adds a separate entry of the source.
# How the values were obtained:
# [1] = target: Ku70/80 heterodimer-DNA interaction (Homo sapiens, UniProt P12956+P13010); experiment: Electrophoretic Mobility Shift Assay (EMSA) of Ku70/80 binding to a DNA substrate; conditions: for Disruption of Ku70/80-DNA interaction (disappearance of the band shift): compound at 100 μM in EMSA reaction
# Chain of Ku70/80 heterodimer-DNA interaction (P12956 whole entry): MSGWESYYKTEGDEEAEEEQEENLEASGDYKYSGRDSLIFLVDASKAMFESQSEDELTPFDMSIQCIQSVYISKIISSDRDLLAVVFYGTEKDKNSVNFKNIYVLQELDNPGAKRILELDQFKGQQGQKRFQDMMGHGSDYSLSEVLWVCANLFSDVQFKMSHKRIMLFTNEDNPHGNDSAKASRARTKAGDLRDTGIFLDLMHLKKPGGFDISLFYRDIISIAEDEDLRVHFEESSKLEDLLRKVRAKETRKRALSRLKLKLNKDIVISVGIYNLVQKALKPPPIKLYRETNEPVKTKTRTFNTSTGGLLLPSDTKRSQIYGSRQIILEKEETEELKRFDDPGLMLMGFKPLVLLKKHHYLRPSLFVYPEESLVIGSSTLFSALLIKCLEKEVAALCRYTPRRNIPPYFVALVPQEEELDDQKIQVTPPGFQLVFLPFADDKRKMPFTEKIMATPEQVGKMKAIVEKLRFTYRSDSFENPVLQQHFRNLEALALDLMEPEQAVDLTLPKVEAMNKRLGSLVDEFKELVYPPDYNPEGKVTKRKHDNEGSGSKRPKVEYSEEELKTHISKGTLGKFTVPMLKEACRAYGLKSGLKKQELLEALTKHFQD
# Chain of Ku70/80 heterodimer-DNA interaction (P13010 whole entry): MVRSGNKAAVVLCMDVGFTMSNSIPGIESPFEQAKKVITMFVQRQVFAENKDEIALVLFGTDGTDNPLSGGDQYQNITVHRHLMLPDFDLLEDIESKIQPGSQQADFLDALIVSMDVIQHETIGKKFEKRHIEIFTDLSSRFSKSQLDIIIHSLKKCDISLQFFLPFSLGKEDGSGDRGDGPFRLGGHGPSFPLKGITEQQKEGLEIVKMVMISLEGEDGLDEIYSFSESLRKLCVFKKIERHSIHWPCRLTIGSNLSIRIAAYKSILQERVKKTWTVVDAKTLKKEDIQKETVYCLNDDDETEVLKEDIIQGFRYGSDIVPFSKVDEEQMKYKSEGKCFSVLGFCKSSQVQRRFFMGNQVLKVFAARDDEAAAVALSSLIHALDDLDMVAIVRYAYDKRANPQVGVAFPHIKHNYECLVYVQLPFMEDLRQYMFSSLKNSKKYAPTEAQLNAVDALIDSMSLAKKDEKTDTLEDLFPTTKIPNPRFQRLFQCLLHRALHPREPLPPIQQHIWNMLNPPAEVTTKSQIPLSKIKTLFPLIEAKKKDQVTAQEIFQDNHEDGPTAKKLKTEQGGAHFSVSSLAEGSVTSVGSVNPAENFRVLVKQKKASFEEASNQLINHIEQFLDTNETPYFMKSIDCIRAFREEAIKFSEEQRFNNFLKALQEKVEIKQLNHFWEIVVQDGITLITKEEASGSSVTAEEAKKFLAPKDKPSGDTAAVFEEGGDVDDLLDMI
# Excerpt: Next, the described ‘protomol’ was utilized as a guide to screen small molecule databases for potential inhibitors. Hits were sorted from highest to lowest docking scores and nine compounds were ultimately chosen for biological activity screening (see, Table 1). These compounds were commercially obtained and designated with a letter (A through H, and L). For initial activity screening experiments utilized an Electrophoretic Mobility Shift Assay (EMSA), in which a radioactively labeled artificial DNA substrate was incubated with a preparation of purified Ku70/80 protein, followed by non-denaturing gel electrophoresis. Interaction of Ku70/80 with DNA caused a measurable shift of the DNA band. […] Compounds C and L were further investigated for their ability to disrupt the Ku70/80 DNA interaction as well as Ku-dependent activation of the DNA-PKcs kinase.
# Therefore, a two orders of magnitude range of serial dilutions of the compounds was added to the previously described EMSA reactions. Inhibition of Ku-DNA interaction in a straight forward dose-dependent manner by compound L alone was observed (FIG. 3B). In order to quantify the relative efficiency of Ku-DNA binding for each dose of Compound L, the intensity of the Ku-DNA bands in the EMSA assay was measured and normalized those values to a number between 0 and 100, where the value 0 represents a reaction where no Ku70/80 was present and the value 100 represents a reaction where no inhibitor was added. These normalized values were subsequently plotted against the corresponding concentrations of Compound L (FIG. 3B). A logarithmic trend line was added and equations were obtained to describe the dose-response curves of Compound L in the EMSA assay. […] IC50 values in this range are generally considered to be a viable starting point for lead-finding exploits.
# [2] = target: DNA-PKCS kinase (Ku-dependent activation) (Homo sapiens, UniProt P12956+P13010); experiment: DNA-PKCS kinase activity assay, Ku70/80-dependent in vitro phosphorylation of a p53-based peptide substrate; format: biochemical; conditions: for Impairment of Ku-dependent activation of DNA-PKCS: in vitro
# Chain of DNA-PKCS kinase (Ku-dependent activation) (P12956 whole entry): as the sequence (P12956 whole entry) above
# Chain of DNA-PKCS kinase (Ku-dependent activation) (P13010 whole entry): as the sequence (P13010 whole entry) above
# Excerpt: To further validate the Ku-inhibitory activity of Compound L, experiments examined its effects on Ku-dependent activation of the DNA-PKCS kinase. […] It is, however, a potent co-factor for the activation of other NHEJ enzymes, including DNA-PKCS (see, G. C. Smith, et al., Genes Dev., 13 (1999), pp. 916-934). It was therefore reasoned that disruption of the Ku-DNA interaction by Compound L should also diminish DNA-PKCS kinase activity. The DNA-PKCS kinase has multiple known downstream targets, including p53, Artemis, and DNA-PKCS itself (see, E. Weterings, et al., Cell Res., 18 (2008), pp. 114-124; G. C. Smith, et al., Genes Dev., 13 (1999), pp. 916-934). It is at present not entirely clear which targets are critical for the overall DNA repair response, but it is evident that the kinase domain of DNA-PKCS is indispensable. Experiments therefore quantified the kinase activity of a purified preparation of the DNA-PKCS protein in the presence of different concentrations of Compound L. Experiments measured the phosphorylation of a p53-based peptide substrate as an arbitrary reporter of DNA-PKCS kinase activity. The obtained in vitro DNA-PKCS kinase activities were subsequently normalized and plotted as a function of compound L concentration (FIG. 4A). Experiments observed a sharp dose-dependent inhibition of DNA-PKCS kinase activity. […] Therefore, both primary (EMSA) and secondary (DNA-PKCS activity) assays for the Ku-inhibitory potential of Compound L indicate an IC50 value in the lower micro-molar range.
# This example compares the in vitro activity of several structural analogs of Compound L. This assay measures the effect of each compound on the in vitro activity of the DNA-PKCS kinase.
# [3] = test system: DNA-PKCS SER2056 autophosphorylation in SF-767 cells; experiment: DNA-PKCS autophosphorylation assay (Western blot) after etoposide-induced DSBs; format: cell-based, human
# Excerpt: In order to further examine the effects of Compound L on Ku-dependent activation of the DNA-PKCS kinase in vivo, experiments also exposed cultures of the human glioblastoma cell line SF-767 to increasing concentrations of Compound L. Upon induction of DSBs by etoposide, experiments quantified the levels of DNA-PKCS autophosphorylation at the SER2056 residue by means of Western blot analysis (FIG. 4B).
# [4] = Radiation sensitization / cytotoxicity by MTS assay in glioblastoma cells; format: cell-based, human; conditions: human, SF-767 glioblastoma cells; SF-767, up to 25 μM, MTS after six day recovery; read-out: Non-viability (toxicity of compound as single modality)
# Protocol: (§1) Consequently, this substance could have an effect on the efficiency of overall repair of DSBs. In order to examine this potential, experiments tested Compound L for its ability to potentiate the effects of ionizing radiation on two human cell lines: the glioblastoma cell line SF-767 (FIG. 5A), and an hTERT immortalized prostate epithelial (PrEC) cell line (see, R. Berger, et al., Cancer Res., 64 (2004), pp. 8867-8875) (FIG. 5B). Cultured cells were treated with either the compound as a single modality, ionizing radiation as a single modality or with a regimen of concurrent radiation and compound. Cell viability was measured after a six day recovery period by standard MTS assay and normalized to the untreated control (no compound or radiation). FIG. 5 presents the observed effects of each treatment modality in terms of percentage non-viable cells. The effects are plotted as a function of the compound's concentration in the culture medium.
# (§2) As expected, experiments observed a clear, dose-dependent increase in non-viable cell population with increasing concentrations of Compound L (FIG. 5, red columns). This reflects the fundamental cytotoxicity of the compound under the chosen experimental conditions. In both cell lines, toxicity of Compound L stayed low (below 5% non-viability) up to 25 μM, after which an exponential increase in cytotoxicity was observed. […] In order to exclude the possibility that this phenomenon was caused by mere additive effects, experiments calculated the sum of the effects of the single modalities (FIG. 5, purple columns) and compared the obtained values with the effects of the combination treatments. By definition, synergism is present when the effect of the combination therapy (green columns) exceeds the sum of the effects of the single modalities (purple columns). In SF-767 cells, synergism was most clearly observed between 20 and 30 μM (FIG. 5A) and in immortalized PrEC cells synergism was present in the 20-35 μM range (FIG. 5B).
# (§3) This is done by means of a standard MTS assay, measuring survival of human glioblastoma (SF767) or immortalized prostate epithelial (PrEC) cells 7 days after treatment with compounds and radiation therapy. […] The radiation-sensitizing potential of Compound L and JV761 is attributable to the ability of these compounds to suppress the activity of Ku70/80 in vivo.
# [5] = test system: SF-767 glioblastoma cells; experiment: as above; format: cell-based, human; conditions: for Sensitization to radiation therapy (RT): human glioblastoma multiforme (GBM) cells
# Protocol: as §1, §2, §3
# [6] = Radiation sensitization / cytotoxicity by MTS assay in prostate epithelial cells; format: cell-based, human; conditions: human, hTERT immortalized prostate epithelial (PrEC) cells; PrEC, up to 25 μM, MTS after six day recovery; read-out: Non-viability (toxicity of compound as single modality)
# Protocol: as §1
# (§4) As expected, experiments observed a clear, dose-dependent increase in non-viable cell population with increasing concentrations of Compound L (FIG. 5, red columns). […] In order to exclude the possibility that this phenomenon was caused by mere additive effects, experiments calculated the sum of the effects of the single modalities (FIG. 5, purple columns) and compared the obtained values with the effects of the combination treatments. […]
# [7] = test system: hTERT immortalized prostate epithelial (PrEC) cells; experiment: as above; format: cell-based, human; conditions: immortalized PrEC, concurrent compound and radiation, FIG. 5B
# Protocol: as §1, §4
# [8] = test system: DNA double strand break (DSB) repair in glioblastoma cells (SF767); experiment: DSB repair after radiation by γ-H2AX phosphorylation; format: cell-based, human; conditions: 25 μM, post radiation
# Protocol: This repair process is dependent on active Ku70/80 and the suppression of Ku-dependent DSB repair is further proof that Compound L inhibits Ku70/80 activity. The relative amount of DSBs is measured by counting the relative intensity of a canonical DSB marker: γ-H2AX.
# Relative number of DSBs was measured by quantifying and normalizing γ-H2AX phosphorylation. […] Measured in human glioblastoma cells (SF767). Error bars represent standard error.
# [9] = Pharmacokinetic profile after bolus IP injection, plasma levels by LC-MS; format: in vivo, nude mice; conditions: bolus IP 1, 3 or 5 mg/kg
# Protocol: A bolus IP injection of Compound L was given at either 1, 3, or 5 mg/kg and plasma levels of Compound L were determined by LC-MS.
# [10] = Tolerability and toxicity after bolus IP injection with two week follow-up; format: in vivo; conditions: mice
SMILES,"IC50 ([1]; EMSA titration, logarithmic trend line, read-out: IC50, dose needed to inhibit 50% of maximal Ku-DNA binding) [nM]",Disruption of Ku70/80-DNA interaction (disappearance of the band shift) [1],Impairment of Ku-dependent activation of DNA-PKCS [2],"IC50 ([2]; p53-based peptide substrate, logarithmic trend line) [nM]",Total DNA-PKCS level ([3]; Western blot),"DNA-PKCS autophosphorylation at the SER2056 residue ([3]; increasing doses, etoposide)",cytotoxicity at 6 days [4] [%],"Concentration range of synergistic radiation-sensitization ([5]; human cancer cells, 4Gy radiation, MTS 7 days after treatment, FIG. 9) [µM]",Sensitization to radiation therapy (RT) [5],cytotoxicity at 6 days [6] [%],Concentration range of synergism with radiation [7] [µM],DSB repair kinetics (γ-H2AX) [8],Plasma levels versus dose ([9]; LC-MS),"half-life ([9]; mouse, plasma, nude mice) [h]",Histopathology and comprehensive blood panels ([10]; after two weeks),"Signs of toxicity ([10]; bolus IP, acute and two week follow-up)",Tolerability ([10]; single bolus IP injection up to 5 mg/kg)
"COc1ccc(CCNc2ncc3c(=O)n(-c4cccc(F)c4)c(=O)[nH]c3n2)cc1OC [Compound L, 7-[[2-(3,4-dimethoxyphenyl)ethyl]amino]-3-(3-fluorophenyl)pyrimido[4,5-d] pyrimidine-2,4(1H,3H)-dione]",3500,disruption of the Ku70/80-DNA interaction; also recorded: screen positive for disruption of Ku70/80-DNA interaction; also recorded: capable of disrupting the binding of Ku to DNA,capable of disrupting the binding of Ku to DNA as well as the activation of DNA-PKCS,2500,not suppressed,sharp decline,< 5,20 to 30,synergistically sensitize,< 5,20 to 35,significantly delayed,directly proportional to dose,~1.5,no abnormalities; also recorded: normal,did not reveal any acute toxicity; also recorded: did not reveal signs of toxicity,well tolerated
"COc1ccc(N2CCN(Cc3nc(N)nc(Nc4cccc(C)c4)n3)CC2)cc1 [Compound C, 4-[[4-(4-methoxyphenyl)piperazin-1-yl]methyl]-6-(m-tolyimino)-5H-1,3,5-triazin-2-amine]",,disruption of the Ku70/80-DNA interaction; also recorded: screen positive for disruption of Ku70/80-DNA interaction; also recorded: capable of disrupting the binding of Ku to DNA,capable of disrupting the binding of Ku to DNA as well as the activation of DNA-PKCS,,,,,,synergistically sensitize,,,,,,,,
